In patent publication US20110071108A1, “Beta-Cyclodextrin Derivatives as Antibacterial Agents” (Pinnacle Pharmaceuticals, Inc., priority 2005, published 2011):

Assays:
Test in all cases: Bacterial panel testing, MIC by broth microdilution
Type in all cases: cell-based
Conditions in all cases: 20-24 hours growth
Eschericia coli = tested on: Eschericia coli
Description: (§1) One to three colonies of bacteria were picked from an Mueller-Hinton or Brain Heart infusion agar plate (depending on the bacterial strain) and transferred to 3 ml Mueller-Hinton broth or Brain Heart infusion media (depending on the bacterial strain). Bacteria were allowed to grow for 2-4 hours in an incubator at 37° C. Bacteria-inoculated media were dispersed in 0.9% saline to match McFarland standard density. 100 μl standardized inoculation was added to 20 ml media (dilution 1). 10 μl of the new dilution was added to 990 μl media and mixed (dilution 2). 10 μl of dilution 2 was spread on an agar plate and allowed to grow overnight. Colonies were then […].
(§2) Test compound was diluted to 10 μg/ml in dimethylsulfoxide. Four μl of Rifampicin antibiotic was loaded into row H, column 2.
(§3) All wells were then filled with 100 μl of inoculated media (dilution 1 from Example 1). A further 100 μl of the inoculated media was then added to column 2 and the contents are pipetted to thoroughly mix the contents. A full 100 μl was then transferred from column 2 and mixed into column 3. This process was continued from left to right until columns 2-12 were serially diluted, and the final draw from column 12 was discarded. The plates were covered with 3M sealing tape (plates containing Enterococcus faecium were sealed with Air Pore sealing tape) and allowed to grow for 20-24 hours. Cytotoxic wells (clear wells) are then scored and the potency of the compound was determined.

Enterococcus faecium = tested on: Enterococcus faecium
Description: as §1, §2, §3

Pseudomonas aeruginosa = tested on: Pseudomonas aeruginosa
Description: as §1, §2, §3

Salmonella choleraesuis = tested on: Salmonella choleraesuis
Description: as §1, §2, §3

| Structure (SMILES) | MIC EC (Eschericia coli) [µg/mL] | MIC EF (Enterococcus faecium) [µg/mL] | MIC PA (Pseudomonas aeruginosa) [µg/mL] | MIC SC (Salmonella choleraesuis) [µg/mL] |
| --- | --- | --- | --- | --- |
| CCCCCCCCCCCCCCCC[N+]12CC[N+](CC(=O)NCC3OC4OC5C(CNC(=O)C[N+]67CC[N+](CCCCCCCCCCCCCCCC)(CC6)CC7)OC(OC6C(CNC(=O)C[N+]78CC[N+](CCCCCCCCCCCCCCCC)(CC7)CC8)OC(OC7C(CNC(=O)C[N+]89CC[N+](CCCCCCCCCCCCCCCC)(CC8)CC9)OC(OC8C(CNC(=O)C[N+]9%10CC[N+](CCCCCCCCCCCCCCCC)(CC9)CC%10)OC(OC9C(CNC(=O)C[N+]%10%11CC[N+](CCCCCCCCCCCCCCCC)(CC%10)CC%11)OC(OC%10C(CNC(=O)C[N+]%11%12CC[N+](CCCCCCCCCCCCCCCC)(CC%11)CC%12)OC(OC3C(O)C4O)C(O)C%10O)C(O)C9O)C(O)C8O)C(O)C7O)C(O)C6O)C(O)C5O)(CC1)CC2 (stereo not shown) | >200 | >200 | >200 | >200 |
| OC1C2OC(CNCc3cccc4ccccc34)C(OC3OC(CNCc4cccc5ccccc45)C(OC4OC(CNCc5cccc6ccccc56)C(OC5OC(CNCc6cccc7ccccc67)C(OC6OC(CNCc7cccc8ccccc78)C(OC7OC(CNCc8cccc9ccccc89)C(OC8OC(CNCc9cccc%10ccccc9%10)C(O2)C(O)C8O)C(O)C7O)C(O)C6O)C(O)C5O)C(O)C4O)C(O)C3O)C1O (stereo not shown) | >200 | – | >200 | >200 |
| CCCCCCCCCCNC[C@H]1O[C@@H]2O[C@H]3[C@H](O)[C@@H](O)[C@@H](O[C@H]4[C@H](O)[C@@H](O)[C@@H](O[C@H]5[C@H](O)[C@@H](O)[C@@H](O[C@H]6[C@H](O)[C@@H](O)[C@@H](O[C@H]7[C@H](O)[C@@H](O)[C@@H](O[C@H]8[C@H](O)[C@@H](O)[C@@H](O[C@H]1[C@H](O)[C@H]2O)O[C@@H]8CNCCCCCCCCCC)O[C@@H]7CNCCCCCCCCCC)O[C@@H]6CNCCCCCCCCCC)O[C@@H]5CNCCCCCCCCCC)O[C@@H]4CNCCCCCCCCCC)O[C@@H]3CNCCCCCCCCCC | >200 | – | >200 | >200 |
| CCCCCCCCCCCC[N+]12CC[N+](CC3OC4OC5C(C[N+]67CC[N+](CCCCCCCCCCCC)(CC6)CC7)OC(OC6C(C[N+]78CC[N+](CCCCCCCCCCCC)(CC7)CC8)OC(OC7C(C[N+]89CC[N+](CCCCCCCCCCCC)(CC8)CC9)OC(OC8C(C[N+]9%10CC[N+](CCCCCCCCCCCC)(CC9)CC%10)OC(OC9C(C[N+]%10%11CC[N+](CCCCCCCCCCCC)(CC%10)CC%11)OC(OC%10C(C[N+]%11%12CC[N+](CCCCCCCCCCCC)(CC%11)CC%12)OC(OC3C(O)C4O)C(O)C%10O)C(O)C9O)C(O)C8O)C(O)C7O)C(O)C6O)C(O)C5O)(CC1)CC2.[Br-].[Br-].[Br-].[Br-].[Br-].[Br-].[Br-].[Br-].[Br-].[Br-].[Br-].[Br-].[Br-].[Br-] (stereo not shown) | >200 | – | >200 | >200 |
| OC1C2OC(CNc3ccccc3-c3ccccc3)C(OC3OC(CNc4ccccc4-c4ccccc4)C(OC4OC(CNc5ccccc5-c5ccccc5)C(OC5OC(CNc6ccccc6-c6ccccc6)C(OC6OC(CNc7ccccc7-c7ccccc7)C(OC7OC(CNc8ccccc8-c8ccccc8)C(OC8OC(CNc9ccccc9-c9ccccc9)C(O2)C(O)C8O)C(O)C7O)C(O)C6O)C(O)C5O)C(O)C4O)C(O)C3O)C1O (stereo not shown) | >200 | – | >200 | >200 |
| OC1C2OC(CN3CCCc4ccccc43)C(OC3OC(CN4CCCc5ccccc54)C(OC4OC(CN5CCCc6ccccc65)C(OC5OC(CN6CCCc7ccccc76)C(OC6OC(CN7CCCc8ccccc87)C(OC7OC(CN8CCCc9ccccc98)C(OC8OC(CN9CCCc%10ccccc%109)C(O2)C(O)C8O)C(O)C7O)C(O)C6O)C(O)C5O)C(O)C4O)C(O)C3O)C1O (stereo not shown) | >200 | >200 | >200 | >200 |
| CCCCCCCCCC[N+]12CC[N+](CC(=O)NCC3OC4OC5C(CNC(=O)C[N+]67CC[N+](CCCCCCCCCC)(CC6)CC7)OC(OC6C(CNC(=O)C[N+]78CC[N+](CCCCCCCCCC)(CC7)CC8)OC(OC7C(CNC(=O)C[N+]89CC[N+](CCCCCCCCCC)(CC8)CC9)OC(OC8C(CNC(=O)C[N+]9%10CC[N+](CCCCCCCCCC)(CC9)CC%10)OC(OC9C(CNC(=O)C[N+]%10%11CC[N+](CCCCCCCCCC)(CC%10)CC%11)OC(OC%10C(CNC(=O)C[N+]%11%12CC[N+](CCCCCCCCCC)(CC%11)CC%12)OC(OC3C(O)C4O)C(O)C%10O)C(O)C9O)C(O)C8O)C(O)C7O)C(O)C6O)C(O)C5O)(CC1)CC2 (stereo not shown) | – | >200 | – | – |
| Cc1cccc(NCC2OC3OC4C(CNc5cccc(C)c5)OC(OC5C(CNc6cccc(C)c6)OC(OC6C(CNc7cccc(C)c7)OC(OC7C(CNc8cccc(C)c8)OC(OC8C(CNc9cccc(C)c9)OC(OC9C(CNc%10cccc(C)c%10)OC(OC2C(O)C3O)C(O)C9O)C(O)C8O)C(O)C7O)C(O)C6O)C(O)C5O)C(O)C4O)c1 (stereo not shown) | >200 | – | >200 | >200 |
| CC(C)[C@H](C)NCC1OC2OC3C(CN[C@@H](C)C(C)C)OC(OC4C(CN[C@@H](C)C(C)C)OC(OC5C(CN[C@@H](C)C(C)C)OC(OC6C(CN[C@@H](C)C(C)C)OC(OC7C(CN[C@@H](C)C(C)C)OC(OC8C(CN[C@@H](C)C(C)C)OC(OC1C(O)C2O)C(O)C8O)C(O)C7O)C(O)C6O)C(O)C5O)C(O)C4O)C(O)C3O (stereo partly shown) | – | >200 | >200 | – |
| OC1C2OC(CNC3CCCc4ccccc43)C(OC3OC(CNC4CCCc5ccccc54)C(OC4OC(CNC5CCCc6ccccc65)C(OC5OC(CNC6CCCc7ccccc76)C(OC6OC(CNC7CCCc8ccccc87)C(OC7OC(CNC8CCCc9ccccc98)C(OC8OC(CNC9CCCc%10ccccc%109)C(O2)C(O)C8O)C(O)C7O)C(O)C6O)C(O)C5O)C(O)C4O)C(O)C3O)C1O (stereo not shown) | >200 | >200 | >200 | – |
| Cc1ccccc1NCC1OC2OC3C(CNc4ccccc4C)OC(OC4C(CNc5ccccc5C)OC(OC5C(CNc6ccccc6C)OC(OC6C(CNc7ccccc7C)OC(OC7C(CNc8ccccc8C)OC(OC8C(CNc9ccccc9C)OC(OC1C(O)C2O)C(O)C8O)C(O)C7O)C(O)C6O)C(O)C5O)C(O)C4O)C(O)C3O (stereo not shown) | >200 | – | >200 | >200 |
| OC1C2OC(CNc3cccc4ccccc34)C(OC3OC(CNc4cccc5ccccc45)C(OC4OC(CNc5cccc6ccccc56)C(OC5OC(CNc6cccc7ccccc67)C(OC6OC(CNc7cccc8ccccc78)C(OC7OC(CNc8cccc9ccccc89)C(OC8OC(CNc9cccc%10ccccc9%10)C(O2)C(O)C8O)C(O)C7O)C(O)C6O)C(O)C5O)C(O)C4O)C(O)C3O)C1O (stereo not shown) | >200 | – | >200 | >200 |
| CC(C)(C)[Si](C)(C)OC1CNC(C(=O)NCC2OC3OC4C(CNC(=O)C5CC(O[Si](C)(C)C(C)(C)C)CN5)OC(OC5C(CNC(=O)C6CC(O[Si](C)(C)C(C)(C)C)CN6)OC(OC6C(CNC(=O)C7CC(O[Si](C)(C)C(C)(C)C)CN7)OC(OC7C(CNC(=O)C8CC(O[Si](C)(C)C(C)(C)C)CN8)OC(OC8C(CNC(=O)C9CC(O[Si](C)(C)C(C)(C)C)CN9)OC(OC9C(CNC(=O)C%10CC(O[Si](C)(C)C(C)(C)C)CN%10)OC(OC2C(O)C3O)C(O)C9O)C(O)C8O)C(O)C7O)C(O)C6O)C(O)C5O)C(O)C4O)C1.O=C(O)C(F)(F)F.O=C(O)C(F)(F)F.O=C(O)C(F)(F)F.O=C(O)C(F)(F)F.O=C(O)C(F)(F)F.O=C(O)C(F)(F)F.O=C(O)C(F)(F)F (stereo not shown) | – | >200 | >200 | – |
